Counter-ions that a name gives are not always drawn. Like-named read-outs stand apart in the source and are kept apart here.
Test system: episomal HPV-16 DNA in W12-20850 cells
Assay: W-12 cellular assay (hybrid capture quantification of episomal HPV-16 DNA)
Assay type: cell-based, HPV16
Settings: read-out: W-12
Protocol: Compounds of the current invention are believed useful in the treatment and/or prophylaxis of conditions and diseases associated with HPV infection. Activity mediated through HPV was determined using the following W-12 cellular assay.
The W12 cell line used contains HPV16 DNA and was derived from a low-grade cervical dysplasia tissue by Margaret Stanley and subsequently clonally selected by Paul Lambert (University of Wisconsin). One of these clones, W12-20850, contains 1000 copies of episomal HPV16 DNA and was used in the cell-based assay. W12-20850 cells were routinely cultured with a gamma-irradiated (6000 rads) feeder layer of 3T3 cells. Assays, however, were run in the absence of a 3T3 feeder layer. W12-20850 and 3T3 cells were routinely split when they were sub-confluent. W12-20850 were grown in W12 Medium which is constituted of 25% DMEM (Gibco BRL, Cat # 12430-047), 75% F12 Media (Gibco BRL, Cat # 11765-021) and 2.5% FBS. The additives include […] Adenine (Sigma, Cat # A-9795), […] Hydrocortisone (Calbiochem, Cat # 386698); 5.0 mg/ml Bovine Insulin (Sigma, Cat # I-1882), 8.4 ng/ml cholera toxin (Fluka, Cat # 26694) and 10 ng/ml EGF (Invitrogen, Cat # 13247-051). 3T3 cells were grown in DMEM containing 10% FBS. Cell lines were incubated at 37° C., in the presence of 5% CO2.
For the assay, W12-20850 cells were seeded into a 96 well plate-containing compound. Plates were incubated at 37° C. in the presence of 5% CO2, for four days. On the fourth day, cells were lysed and the amount of episomal. HPV-16 DNA was quantified using a non-radioactive hybrid capture technique with HPV-16 specific capture and detection probes. The percent inhibition relative to untreated control cells' was then determined.
The hybrid capture assay is run in a 96 well plate format. Hybridization plates (Nunc Maxisorb Cat # 450320) were coated with a mixture of capture probe and ReactiBind solution for at least 4 hours and then washed with 0.2×SSC, 0.05% Tween20 (SSCT) prior to blocking with […] of 0.2 N NaOH, 1% Igepal, 10 mg/ml hsDNA for 6-8 hours. The hybridization was carried out by mixing 27 μl of lysed cells with 45 μl of denatured detection probe in 6M guanidine isothiocyanate. To prevent evaporation, 50 μl of mineral oil was added to each well. The plate was then heated to 90° C. for 6.5 minutes and the hybridization continued at 42° C. overnight. Assay plates were washed 6 times with SSC/T. Anti-digoxigenin HRP-conjugated Ab (Boehringer Mannheim 1207733, 1:5000) was incubated in the wells for 30 min at room temperature and washed with PBS/0.05% Tween-20. SuperSignal LBA substrate (Pierce Cat # 37070) was added, and chemiluminescence was measured using Wallac 1420 Victor plate reader.

[1] = Human papillomavirus 16, 96 h, W12-20850 cells, four days incubation, episomal HPV-16 DNA by hybrid capture, inhibition relative to untreated control cells
[2] = Human papillomavirus 16, W12-20850, 96 h

IC50 [1] [nM]	Structure (SMILES)	IC50 [2] [nM]
11000	Brc1ccc2[nH]c3c(c2c1)CCC3NCCc1ccccc1 (stereo not shown) [Example 50, 7-Bromo-N-(2-phenylethyl)-1,2,3,4-tetrahidrocyclopenta[b]indol-3-amine hydrochloride salt]	
122	C[C@@H](N[C@@H]1CCc2c1[nH]c1ccc(Br)cc21)c1ccccc1 [Example 51, (3R)-7-Bromo-N-[(1R)-1-phenylethyl]-1,2,3,4-tetrahydrocyclooenta[b]indol-3-amine hydrochloride salt]	
29000	C[C@@H](N[C@H]1CCc2c1[nH]c1ccc(Br)cc21)c1ccccc1 [Example 52, (3S)-7-Bromo-N-[(1R)-1-phenylethyl]-1,2,3,4-tetrahydrocyclobenta[b]indol-3-amine hydrochloride salt]	
	COc1ccc2[nH]c3c(c2c1)CCCC3NCc1ccccc1 (stereo not shown) [Example 53, N-Benzyl-6-methoxy-2,3,4,9-tetrahydro-1H-carbazol-1-amine hydrochloride salt]	7600
	Brc1ccc2[nH]c3c(c2c1)CCCCC3NCc1ccccc1 (stereo not shown) [Example 54, N-Benzyl-2-bromo-5,6,7,8,9,10-hexahydrocyclohepta[b]indol-6-amine hydrochloride]	1100
1000	C[C@@H](NC1CCCCc2c1[nH]c1ccc(Br)cc21)c1ccccc1 (stereo partly drawn) [Example 55, 2-Bromo-N-[(1R)-1-phenylethyl]-5,6,7,8,9,10-hexahydrocycloheota[b]indol-6-amine hydrochloride]	
774	Brc1ccc2[nH]c3c(c2c1)CCCCC3NCCc1ccccc1 (stereo not shown) [Example 56, 2-Bromo-N-(2-phenylethyl)-5,6,7,8,9,10-hexahydrocycloheDta[b]indol-6-amine hydrochloride]	
	Fc1ccc(CNC2CCCc3c2[nH]c2ccc(Br)cc32)cc1 (stereo not shown) [Example 57, 6-Bromo-N-(4-fluorobenzyl)-2,3,4,9-tetrahydro-1H-carbazol-1-amine hydrochloride]	139
	FC(F)(F)c1ccc2[nH]c3c(c2c1)CCCC3NCc1ccccc1 (stereo not shown) [Example 58, N-Benzyl-6-(trifluoromethyl)-2,3,4,9-tetrahydro-1H-carbazol-1-amine hydrochloride]	1000
	C[C@@H](NC1CCCc2c1[nH]c1ccc(C(F)(F)F)cc21)c1ccccc1 (stereo partly drawn) [Example 59, N-[(1R)-1-Phenylethyl]-6-(trifluoromethyl)-2,3,4,9-tetrahydro-1H-carbazol-1-amine hydrochloride]	287
	Brc1ccc2[nH]c3c(c2c1)CCCC3NC(c1ccccc1)c1ccccc1 (stereo not shown) [Example 60, N-Benzhydryl-6-bromo-2,3,4,9-tetrahydro-1H-carbazol-1-amine hydrochloride]	14
	Brc1ccc2c3c([nH]c2c1)C(NCc1ccccc1)CCC3 (stereo not shown) [Example 61, N-Benzyl-7-bromo-2,3,4,9-tetrahydro-1H-carbazol-1-amine hydrochloride]	11000
	C[C@@H](NC1CCCc2c1[nH]c1cc(Br)ccc21)c1ccccc1 (stereo partly drawn) [Example 62, 7-Bromo-N-[(1R)-1-phenylethyl]-2,3,4,9-tetrahydro-1H-carbazol-1-amine hydrochloride]	8000
3900	Brc1ccc2c3c([nH]c2c1)C(NC1Cc2ccccc2C1)CCC3 (stereo not shown) [Example 63, 7-Bromo-N-(2.3-dihydro-1H-inden-2-yl)-2,3,4,9-tetrahydro-1H-carbazol-1-amine hydrochloride]	
95	Brc1ccc2[nH]c3c(c2c1)CCCC3OCc1ccccc1 (stereo not shown) [Example 64, 6-Bromo-1-[(phenylmethyl)oxy]-2,3,4,9-tetrahydro-1H-carbazole]	
5000	CC(C)NC(=O)NC1CCCc2c1[nH]c1ccc(Br)cc21 (stereo not shown) [Example 65, N-(6-Bromo-2,3,4,9-tetrahydro-1H-carbazol-1-yl)-N′-isopropylurea]	
165	COC(=O)NC1CCCc2c1[nH]c1ccc(Br)cc21 (stereo not shown) [Example 66, Methyl 6-bromo-2,3,4,9-tetrahydro-1H-carbazol-1-ylcarbamate]	
13000	CC(=O)NC1CCCc2c1[nH]c1ccc(Br)cc21 (stereo not shown) [Example 67, N-(6-Bromo-2,3,4,9-tetrahydro-1H-carbazol-1-yl)acetamide]	
380	O=C(NC1CCCc2c1[nH]c1ccc(Br)cc21)C1CCCCC1 (stereo not shown) [Example 68, N-(6-Bromo-2,3,4,9-tetrahydro-1H-carbazol-1-yl)cyclohexanecarboxamide]	
2300	CS(=O)(=O)NC1CCCc2c1[nH]c1ccc(Br)cc21 (stereo not shown) [Example 69, N-(6-Bromo-2,3,4,9-tetrahydro-1H-carbazol-1-yl)methanesulfonamide]	
10300	NC(=O)NC1CCCc2c1[nH]c1ccc(Br)cc21 (stereo not shown) [Example 70, N-(6-Bromo-2,3,4,9-tetrahydro-1H-carbazol-1-yl)urea]	
	Brc1cccc2c3c([nH]c12)C(NCc1ccccc1)CCC3 (stereo not shown) [Example 71, N-Benzyl-8-bromo-2,3,4,9-tetrahydro-1H-carbazol-1-amine hydrochloride]	11400
